How the values were obtained:
Experiment in all cases: FLIPR calcium assay, cells with promiscuous G protein transfected with bitter receptor cDNA
Type in all cases: cell-based
Conditions in all cases: responsive if cellular response of >10% over baseline, Fluo4-AM
[1] = target: T1, T2R receptor SEQ ID NO: 1 (S1) (Homo sapiens, UniProt Q9NYW7)
T1 construct: expressed in transfected cells; host or cells: cells expressing a promiscuous G protein (e.g., G16g44)
T1 sequence (Q9NYW7 1-299): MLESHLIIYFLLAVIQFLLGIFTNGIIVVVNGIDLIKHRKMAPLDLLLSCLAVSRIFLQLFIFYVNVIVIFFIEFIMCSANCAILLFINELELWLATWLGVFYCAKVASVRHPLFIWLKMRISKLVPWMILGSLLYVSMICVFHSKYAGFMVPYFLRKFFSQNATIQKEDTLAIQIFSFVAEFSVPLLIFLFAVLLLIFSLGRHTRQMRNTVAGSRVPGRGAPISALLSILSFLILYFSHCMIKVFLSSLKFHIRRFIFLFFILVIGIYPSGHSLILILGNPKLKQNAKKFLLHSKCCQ
Method in brief: (§1)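 Fluo4-AM calcium imaging on FLIPR, agonist added during recording. Host: G16g44 cells, one receptor cDNA per transfection, 28 h culture. Activity cutoff >10% over baseline.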

[2] = target: T2, T2R receptor SEQ ID NO: 3 (S3) (Homo sapiens, UniProt Q9NYW0, T156M)
T2 construct: expressed in transfected cells; host or cells: cells expressing a promiscuous G protein (e.g., G16g44)
T2 sequence (Q9NYW0 1-307 T156M): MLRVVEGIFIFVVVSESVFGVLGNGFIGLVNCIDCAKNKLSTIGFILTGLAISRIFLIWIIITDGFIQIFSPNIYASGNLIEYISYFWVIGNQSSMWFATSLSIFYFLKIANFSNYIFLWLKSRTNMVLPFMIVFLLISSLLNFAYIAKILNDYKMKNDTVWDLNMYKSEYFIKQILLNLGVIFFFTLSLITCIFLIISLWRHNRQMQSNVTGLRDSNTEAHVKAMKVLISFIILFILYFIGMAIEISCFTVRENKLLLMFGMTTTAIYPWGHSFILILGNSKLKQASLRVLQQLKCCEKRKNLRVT
Method in brief: as §1

[3] = target: T3, T2R receptor SEQ ID NO: 6 (S6) (Homo sapiens, UniProt P59540)
T3 construct: expressed in transfected cells; host or cells: cells expressing a promiscuous G protein (e.g., G16g44)
T3 sequence (P59540 1-309): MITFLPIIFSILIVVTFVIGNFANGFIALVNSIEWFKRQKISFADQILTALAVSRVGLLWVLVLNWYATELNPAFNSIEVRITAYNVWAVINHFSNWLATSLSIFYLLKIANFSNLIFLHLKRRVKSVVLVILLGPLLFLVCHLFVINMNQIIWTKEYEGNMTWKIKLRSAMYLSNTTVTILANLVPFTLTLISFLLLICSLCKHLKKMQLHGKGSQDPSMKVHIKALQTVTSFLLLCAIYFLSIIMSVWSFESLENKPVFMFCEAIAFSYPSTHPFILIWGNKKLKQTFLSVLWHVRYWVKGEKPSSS
Method in brief: as §1

[4] = target: T4, T2R receptor SEQ ID NO: 2 (S2) (Homo sapiens, UniProt Q9NYW2)
T4 construct: expressed in transfected cells; host or cells: cells expressing a promiscuous G protein (e.g., G16g44)
T4 sequence (Q9NYW2 1-309): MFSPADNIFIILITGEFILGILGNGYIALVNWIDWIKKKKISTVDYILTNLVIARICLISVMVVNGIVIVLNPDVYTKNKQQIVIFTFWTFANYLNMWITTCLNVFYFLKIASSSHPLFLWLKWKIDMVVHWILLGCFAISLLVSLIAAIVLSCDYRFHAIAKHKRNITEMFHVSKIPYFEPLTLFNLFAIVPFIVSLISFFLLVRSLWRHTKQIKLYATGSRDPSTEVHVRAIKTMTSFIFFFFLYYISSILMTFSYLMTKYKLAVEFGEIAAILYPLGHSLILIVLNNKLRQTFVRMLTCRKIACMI
Method in brief: as §1

[5] = target: T5, T2R receptor SEQ ID NO: 5 (S5) (Homo sapiens, UniProt P59534)
T5 construct: expressed in transfected cells; host or cells: cells expressing a promiscuous G protein (e.g., G16g44)
T5 sequence (P59534 18-338): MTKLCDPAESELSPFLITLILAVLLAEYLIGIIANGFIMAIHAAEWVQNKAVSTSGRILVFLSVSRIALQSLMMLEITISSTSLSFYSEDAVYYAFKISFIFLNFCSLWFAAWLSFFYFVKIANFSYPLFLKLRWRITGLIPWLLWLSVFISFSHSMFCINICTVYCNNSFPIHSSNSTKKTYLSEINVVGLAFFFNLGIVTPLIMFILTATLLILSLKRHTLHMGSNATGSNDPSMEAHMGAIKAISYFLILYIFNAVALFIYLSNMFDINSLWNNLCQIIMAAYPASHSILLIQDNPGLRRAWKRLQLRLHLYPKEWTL
Method in brief: as §1

[6] = target: T6, T2R receptor SEQ ID NO: 4 (S4) (Homo sapiens, UniProt Q9NYV8)
T6 construct: expressed in transfected cells; host or cells: cells expressing a promiscuous G protein (e.g., G16g44)
T6 sequence (Q9NYV8 1-317): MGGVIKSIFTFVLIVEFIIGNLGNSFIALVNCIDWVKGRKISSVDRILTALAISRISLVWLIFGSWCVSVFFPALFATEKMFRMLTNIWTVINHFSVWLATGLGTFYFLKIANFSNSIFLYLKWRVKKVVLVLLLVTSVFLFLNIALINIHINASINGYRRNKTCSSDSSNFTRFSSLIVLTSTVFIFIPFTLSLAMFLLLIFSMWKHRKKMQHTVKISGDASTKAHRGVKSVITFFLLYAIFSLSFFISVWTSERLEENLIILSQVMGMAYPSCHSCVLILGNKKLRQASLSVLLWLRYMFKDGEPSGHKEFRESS
Method in brief: as §1

Row | SMILES | S1 positive response of T2R receptor to API [1] | S3 positive response of T2R receptor to API [2] | S6 positive response of T2R receptor to API [3] | S2 positive response of T2R receptor to API [4] | S5 positive response of T2R receptor to API [5] | S4 positive response of T2R receptor to API [6]
1 | O=C(N[C@H](CO)[C@H](O)c1ccc([N+](=O)[O-])cc1)C(Cl)Cl [Chloramphenicol] | + (a “+” to indicate whether a particular T2R receptor showed a positive response to a particular API) | + (a “+” to indicate whether a particular T2R receptor showed a positive response to a particular API) | + (a “+” to indicate whether a particular T2R receptor showed a positive response to a particular API) | + (a “+” to indicate whether a particular T2R receptor showed a positive response to a particular API) | + (a “+” to indicate whether a particular T2R receptor showed a positive response to a particular API) | –
2 | CCC[C@@H]1C[C@@H](C(=O)N[C@@H]([C@H]2O[C@H](SC)[C@H](O)[C@@H](O)[C@H]2O)[C@H](C)Cl)N(C)C1 [Clinamycin] | – | + (a “+” to indicate whether a particular T2R receptor showed a positive response to a particular API) | – | + (a “+” to indicate whether a particular T2R receptor showed a positive response to a particular API) | + (a “+” to indicate whether a particular T2R receptor showed a positive response to a particular API) | + (a “+” to indicate whether a particular T2R receptor showed a positive response to a particular API)
3 | CC[C@H]1OC(=O)[C@H](C)[C@@H](O[C@H]2C[C@@](C)(OC)[C@@H](O)[C@H](C)O2)[C@H](C)[C@@H](O[C@@H]2O[C@H](C)C[C@H](N(C)C)[C@H]2O)[C@](C)(O)C[C@@H](C)C(=O)[C@H](C)[C@@H](O)[C@]1(C)O [Erythromycin] | – | + (a “+” to indicate whether a particular T2R receptor showed a positive response to a particular API) | + (a “+” to indicate whether a particular T2R receptor showed a positive response to a particular API) | + (a “+” to indicate whether a particular T2R receptor showed a positive response to a particular API) | + (a “+” to indicate whether a particular T2R receptor showed a positive response to a particular API) | –
4 | NC(N)=Nc1nc(CSCCC(N)=NS(N)(=O)=O)cs1 [Famotidine] | + (a “+” to indicate whether a particular T2R receptor showed a positive response to a particular API) | + (a “+” to indicate whether a particular T2R receptor showed a positive response to a particular API) | + (a “+” to indicate whether a particular T2R receptor showed a positive response to a particular API) | + (a “+” to indicate whether a particular T2R receptor showed a positive response to a particular API) | + (a “+” to indicate whether a particular T2R receptor showed a positive response to a particular API) | –
5 | CN1CCN(CC(=O)N2c3ccccc3C(=O)Nc3cccnc32)CC1 [Pirenzepine] | – | + (a “+” to indicate whether a particular T2R receptor showed a positive response to a particular API) | + (a “+” to indicate whether a particular T2R receptor showed a positive response to a particular API) | + (a “+” to indicate whether a particular T2R receptor showed a positive response to a particular API) | + (a “+” to indicate whether a particular T2R receptor showed a positive response to a particular API) | –
6 | COc1cc(Cc2cnc(N)nc2N)cc(OC)c1OC [Trimethoprim] | – | + (a “+” to indicate whether a particular T2R receptor showed a positive response to a particular API) | + (a “+” to indicate whether a particular T2R receptor showed a positive response to a particular API) | + (a “+” to indicate whether a particular T2R receptor showed a positive response to a particular API) | + (a “+” to indicate whether a particular T2R receptor showed a positive response to a particular API) | –
